Assay results: patent US8901156B2, “Compounds and methods” (Tempero Pharmaceuticals, Inc., priority 2010, dated 2014)

Molecular target: T1, Recombinant HDAC9 isoform 4 (Homo sapiens, UniProt Q9UKV0)
T1 construct: purchased BPS Bioscience
Test: Histone Deacetylase 9 (HDAC9) inhibition assay, fluorogenic substrate
Format: biochemical
Details: mean of a minimum of 2 experiments; 11 point 3x dilution series from 100 uM; substrate 4.5 uM; read-out: mean pIC50, inhibition of HDAC9 (converted)

T1 sequence (Q9UKV0 1-1066 isoform Q9UKV0-5): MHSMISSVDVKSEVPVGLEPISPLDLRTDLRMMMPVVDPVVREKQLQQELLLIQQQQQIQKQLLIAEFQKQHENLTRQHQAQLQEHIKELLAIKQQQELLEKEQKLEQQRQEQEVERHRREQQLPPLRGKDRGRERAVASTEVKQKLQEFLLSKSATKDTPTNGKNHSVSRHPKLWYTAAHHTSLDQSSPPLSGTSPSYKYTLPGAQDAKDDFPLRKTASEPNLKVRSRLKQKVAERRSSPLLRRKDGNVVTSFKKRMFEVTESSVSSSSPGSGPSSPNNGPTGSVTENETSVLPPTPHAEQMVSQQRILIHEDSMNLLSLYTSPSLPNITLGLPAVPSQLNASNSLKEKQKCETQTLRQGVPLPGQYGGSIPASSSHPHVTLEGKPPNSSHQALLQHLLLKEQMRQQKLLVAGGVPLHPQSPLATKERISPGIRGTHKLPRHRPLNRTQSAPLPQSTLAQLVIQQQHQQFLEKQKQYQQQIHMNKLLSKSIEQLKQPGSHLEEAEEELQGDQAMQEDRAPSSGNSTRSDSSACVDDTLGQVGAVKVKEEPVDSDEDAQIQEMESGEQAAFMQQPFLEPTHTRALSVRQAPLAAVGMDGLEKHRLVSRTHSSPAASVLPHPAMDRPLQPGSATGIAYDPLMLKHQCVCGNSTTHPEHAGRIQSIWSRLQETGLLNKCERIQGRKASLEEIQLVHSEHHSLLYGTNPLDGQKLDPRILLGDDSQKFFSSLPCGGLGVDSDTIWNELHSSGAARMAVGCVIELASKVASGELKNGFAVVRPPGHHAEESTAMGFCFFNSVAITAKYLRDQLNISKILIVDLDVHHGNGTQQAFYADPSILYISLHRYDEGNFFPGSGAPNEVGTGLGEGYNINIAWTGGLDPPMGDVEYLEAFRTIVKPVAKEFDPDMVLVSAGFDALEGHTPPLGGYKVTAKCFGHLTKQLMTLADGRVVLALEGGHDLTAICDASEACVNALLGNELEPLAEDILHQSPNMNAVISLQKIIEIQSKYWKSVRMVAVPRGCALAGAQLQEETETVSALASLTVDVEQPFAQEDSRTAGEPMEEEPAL

| Structure (SMILES) | IC50 [nM] |
| --- | --- |
| O=C(NCC1(c2nc(-c3ccncc3)cs2)CCOCC1)c1cccc(-c2noc(C(F)(F)F)n2)c1 [Example 21, N-((4-(4-(Pyridin-4-yl)thiazol-2-yl)tetrahydro-2H-pyran-4-yl)methyl)-3-(5-(trifluoromethyl)-1,2,4-oxadiazol-3-yl)benzamide] | < 1000 |
| O=S(=O)(NCC1(c2nc(-c3ccccc3)cs2)CCOCC1)c1cccc(-c2noc(C(F)(F)F)n2)c1 [Example 32, N-((4-(4-Phenylthiazol-2-yl)tetrahydro-2H-pyran-4-yl)methyl)-3-(5-(trifluoromethyl)-1,2,4-oxadiazol-3-yl)benzenesulfonamide] | < 1000 |
| O=C(NCC1(c2cccc(-c3ccccc3)c2)CCOCC1)c1cncc(-c2noc(C(F)(F)F)n2)c1 [Example 78, N-((4-([1,1′-Biphenyl]-3-yl)tetrahydro-2H-pyran-4-yl)methyl)-5-(5-(trifluoromethyl)-1,2,4-oxadiazol-3-yl)nicotinamide] | < 1000 |
| O=C(NCCC(O)c1coc(-c2ccc(F)cc2)n1)c1cccc(-c2noc(C(F)(F)F)n2)c1 (centres unmarked) [Example 110, N-(3-(2-(4-Fluorophenyl)oxazol-4-yl)-3-hydroxypropyl)-3-(5-(trifluoromethyl)-1,2,4-oxadiazol-3-yl)benzamide] | < 1000 |
| O=C(NCCc1nc(-c2ccccc2)no1)c1cccc(-c2noc(C(F)(F)F)n2)c1 [Example 132, N-(2-(3-Phenyl-1,2,4-oxadiazol-5-yl)ethyl)-3-(5-(trifluoromethyl)-1,2,4-oxadiazol-3-yl)benzamide] | < 1000 |
